Assay results: the supplement of paper PMC8671470

Experiments:
Details in all cases: 72 h
MV4-11 [1] = tested on: MV4-11
In short: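 In 384-well plates holding acoustically pre-printed compounds at five tenfold doses from 1 to 10,000 nM, in duplicate, fifteen myeloid leukaemia cell lines were grown in RPMI 1640 for 72 h at 37 °C with 5% CO2. Luminescent ATP viability was scaled between vehicle and a positive control at 10 µM. The IC50 was then taken from log-logistic dose–response fits with four parameters.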

HL-60 [2] = test: cell viability (% survival relative to DMSO control); higher = less cytotoxic
In short: (§1)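 In 384-well plates, the full library was rescreened in duplicate on HL-60 cells in RPMI 1640 with 10% FBS, at 1–10,000 nM in five tenfold concentrations, for 72 h at 37 °C, 5% CO2. Each run also held DMSO or 100 nM of one of three metabolic inhibitors. Viability was measured by CellTiter-Glo and normalised to DMSO wells and to wells with proteasome inhibitor, present at 10 μM. Any area under the curve comes from four-parameter log-logistic fitting with drc and PharmacoGx.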

BV-173 = test: cell viability (% survival relative to DMSO control, bortezomib = 0%); higher = less cytotoxic
In short: (§2)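 Reported values are percent survival from duplicate wells, averaged. Fifteen myeloid leukaemia cell lines were treated in 384-well plates with compounds at 1, 10, 100, 1000 or 10000 nM for 72 h at 37 °C in 5% CO2. Signals from CellTiter-Glo luminescence were scaled with vehicle as 100% and a 10 µM positive control as 0%.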

HEL = test: as above
In short: as §2

HL-60 [3] = test: as above
In short: as §2

K-562 = test: as above
In short: as §2

KCL-22 = test: as above
In short: as §2

KG-1 = test: as above
In short: as §2

KU-812 = test: as above
In short: as §2

LAMA-84 = test: as above
In short: as §2

ML-2 = test: as above
In short: as §2

MOLM-13 = test: as above
In short: as §2

MV4-11 [4] = test: as above
In short: as §2

Mono-Mac-6 = test: as above
In short: as §2

NOMO-1 = test: as above
In short: as §2

SHI-1 = test: as above
In short: as §2

THP-1 = test: as above
In short: as §2

HL-60 [5] = test: area under dose-response curve (viability, 1 nM-10 uM) (fraction (0-1)); higher = more sensitive
In short: as §1

CCC(CC#N)OC(=O)N[C@@H](C)c1cccc(NC(=O)Nc2ccc(-c3cnco3)c(OC)c2)c1 (stereo in doubt) [AVN-944]
Details	IC50 (cell viability) [nM]
MV4-11 [1]	78.1

cell viability [%], HL-60 [2]
Details	0.001 µM	0.01 µM	0.1 µM	1 µM	10 µM
co-treatment: AZD3965 100 nM	96.6	102	102	35.4	8.09
co-treatment: DMSO vehicle	99.36	97.01	103	50	12.9
co-treatment: GSK2194069 100 nM	99.2	105	100	53	12.3
co-treatment: pictilisib 100 nM	102.95	98.5	93.8	48.9	9.49

Details	area under dose-response curve, co-treatment: AZD3965 100 nM	area under dose-response curve, co-treatment: DMSO vehicle	area under dose-response curve, co-treatment: GSK2194069 100 nM	area under dose-response curve, co-treatment: pictilisib 100 nM	cell viability, 1 nM [%]	cell viability, 10 nM [%]	cell viability, 100 nM [%]	cell viability, 1000 nM [%]	cell viability, 10000 nM [%]
BV-173	–	–	–	–	93.8	80.7	50.8	-0.621	-0.6
HEL	–	–	–	–	101	119	70	4.65	2.7
HL-60 [3]	–	–	–	–	94.9	85.7	61.6	12.6	1.98
HL-60 [5]	0.273	0.233	0.227	0.255	–	–	–	–	–
K-562	–	–	–	–	103	96.9	30.3	10.1	5.46
KCL-22	–	–	–	–	94.6	114	32.7	11.6	7.56
KG-1	–	–	–	–	108	99.4	74.1	27	20.2
KU-812	–	–	–	–	93.6	106	50.2	9.58	3.66
LAMA-84	–	–	–	–	92.5	102	43.9	19	12.5
ML-2	–	–	–	–	99.6	111	29.5	1.17	-0.0869
MOLM-13	–	–	–	–	130	121	8.35	1.17	0.252
MV4-11 [4]	–	–	–	–	92.1	96.4	35.8	-0.602	-0.425
Mono-Mac-6	–	–	–	–	90.2	90.5	60.2	16.4	8.67
NOMO-1	–	–	–	–	99.9	101	86.5	34	10.4
SHI-1	–	–	–	–	104	107	68.2	12.4	8.7
THP-1	–	–	–	–	101	99.7	101	65.3	43.1
